Paper PMC8097023, “Structures of a non-ribosomal peptide synthetase condensation domain suggest the basis of substrate selectivity” (Nature Communications, 2021)

Legend:
[1] = target: T1, PCP2-C3 didomain of fuscachelin NRPS FscG (Thermobifida fusca, UniProt Q47NR9); experiment: X-ray crystal structure, […] Å; type: binding; conditions: covalent; PPant on S2514 of PCP2; arm at C3 acceptor entrance, kept out of the active site by R2577
T1 construct: gene Tfu_1867; PCP2-C3 didomain fragment; C3 = residues 2558-2999, PPant site S2514; His-SUMO tag (pOPIN-S) cleaved; made in E. coli BL21(DE3) entD-; monomeric, two copies in the asymmetric unit, PCP2 at the acceptor site of the other chain
T1 sequence (Q47NR9 2481-3008): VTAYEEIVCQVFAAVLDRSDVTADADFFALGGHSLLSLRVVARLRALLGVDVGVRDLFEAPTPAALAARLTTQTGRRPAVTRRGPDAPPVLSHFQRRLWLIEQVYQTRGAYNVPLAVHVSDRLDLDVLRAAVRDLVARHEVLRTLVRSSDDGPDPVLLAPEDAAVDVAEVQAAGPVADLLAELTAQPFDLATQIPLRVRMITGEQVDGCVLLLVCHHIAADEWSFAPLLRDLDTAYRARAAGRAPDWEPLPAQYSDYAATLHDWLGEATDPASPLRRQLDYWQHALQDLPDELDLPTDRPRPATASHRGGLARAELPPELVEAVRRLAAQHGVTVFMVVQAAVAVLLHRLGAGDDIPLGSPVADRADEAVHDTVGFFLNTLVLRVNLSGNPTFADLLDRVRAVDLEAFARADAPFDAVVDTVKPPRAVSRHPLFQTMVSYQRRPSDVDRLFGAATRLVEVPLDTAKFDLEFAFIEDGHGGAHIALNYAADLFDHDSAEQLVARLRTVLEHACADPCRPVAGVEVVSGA

[2] = target: T2, PCP2-C3 didomain of fuscachelin NRPS FscG (Thermobifida fusca, UniProt Q47NR9, R2577G); experiment: X-ray crystal structure, […] Å; type: binding; conditions: covalent; PPant on S2514 of PCP2, fully extended through the acceptor channel into the C3 active site
T2 construct: gene Tfu_1867; PCP2-C3 didomain fragment; C3 = residues 2558-2999, PPant site S2514; His-SUMO tag (pOPIN-S) cleaved; made in E. coli BL21(DE3) entD-; monomeric, two copies in the asymmetric unit, PCP2 at the acceptor site of the other chain
T2 sequence (Q47NR9 entry or part of it R2577G): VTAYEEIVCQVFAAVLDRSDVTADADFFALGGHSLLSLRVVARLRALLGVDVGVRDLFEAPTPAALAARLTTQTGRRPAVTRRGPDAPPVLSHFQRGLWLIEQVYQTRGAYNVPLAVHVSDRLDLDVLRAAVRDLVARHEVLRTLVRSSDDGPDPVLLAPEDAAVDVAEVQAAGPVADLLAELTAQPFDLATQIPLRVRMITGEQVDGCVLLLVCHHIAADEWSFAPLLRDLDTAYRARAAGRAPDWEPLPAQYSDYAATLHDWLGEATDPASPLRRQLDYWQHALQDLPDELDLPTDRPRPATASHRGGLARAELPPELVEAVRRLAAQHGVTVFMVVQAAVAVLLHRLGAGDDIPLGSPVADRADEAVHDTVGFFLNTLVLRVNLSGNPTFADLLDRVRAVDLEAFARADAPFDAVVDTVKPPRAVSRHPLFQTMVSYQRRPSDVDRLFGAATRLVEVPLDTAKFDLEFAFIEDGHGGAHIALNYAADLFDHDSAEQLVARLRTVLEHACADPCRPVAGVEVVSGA

## CC(C)(COP(=O)(O)O)[C@@H](O)C(=O)NCCC(=O)NCCS [PPant]
[1]
  X-ray crystal structure, 2.2 Å: Having confirmed the presence of a PPant arm, we modeled this into the electron density
[2]
  X-ray crystal structure, 2 Å: PPant moiety, which now fully extends thought the acceptor channel into the active site
